Active and inactive are the calls of the source. The rule behind the calls is not given here.
Tests used:
[1] = system: von Hippel-Lindau disease tumor suppressor/GTPase KRas (Homo sapiens), P01116+P40337 [G12D]; experiment: PROTAC activity at VHL/KRAS G12D mutant in human ASPC1 cells assessed as induction of protein degradation incubated for 24 hrs by Western blot analysis relative to control; format: cell-based
[2] = molecular target: von Hippel-Lindau disease tumor suppressor/GTPase KRas (Homo sapiens, UniProt P01116+P40337, G12D); experiment: PROTAC activity at VHL/KRAS G12D mutant in human ASPC1 cells assessed as induction of protein degradation incubated for 24 hrs by Western blot analysis; format: cell-based
[3] = Cooperativity factor alpha, ratio of IC50 for His-tagged VHL/Elongin C/Elongin B (unknown origin) to IC50 for His-tagged VHL/Elongin C/Elongin B/KRAS (unknown origin)
[4] = Competitive binding affinity to His-tagged VHL/Elongin C/Elongin B/KRAS G12D mutant (unknown origin) by FP assay; design: species or system Homo sapiens
[5] = Competitive binding affinity to His-tagged VHL/Elongin C/Elongin B (unknown origin) by FP assay; design: species or system Homo sapiens
[6] = Drug uptake in human ASPC1 cells at 10 uM incubated for 1 hr by MS analysis; format: ADME, cell-based; settings: aspc1, 1 h
[7] = system: von Hippel-Lindau disease tumor suppressor/GTPase KRas (Homo sapiens), P01116+P40337 [G12D]; experiment: PROTAC activity at VHL/KRAS G12D mutant in human ASPC1 cells assessed as induction of protein degradation at 1 to 10 uM incubated for 7 hrs by Western blot analysis; format: cell-based; settings: dose 1-10 µM
[8] = system: NCI-H358; experiment: Antiproliferative activity against human NCI-H358 cells harboring KRAS G12C mutant assessed as inhibition of cell viability incubated for 5 days by Cell Titer Glo assay; format: functional, cell-based; settings: NCI-H358, 120 h
[9] = system: ASPC1; experiment: Antiproliferative activity against human ASPC1 cells harboring KRAS G12D mutant assessed as inhibition of cell viability incubated for 5 days by Cell Titer Glo assay; format: functional, cell-based; settings: ASPC1, 120 h
[10] = system: HPAF-II; experiment: Antiproliferative activity against human HPAF-II cells harboring KRAS G12D mutant assessed as inhibition of cell viability incubated for 5 days by Cell Titer Glo assay; format: functional, cell-based; settings: 120 h
[11] = system: NCI-H1975; experiment: Antiproliferative activity against human NCI-H1975 cells harboring wild-type KRAS assessed as inhibition of cell viability incubated for 5 days by Cell Titer Glo assay; format: functional, cell-based; settings: NCI-H1975, 120 h
[12] = system: SNU1; experiment: Antiproliferative activity against human SNU1 cells harboring KRAS G12D mutant assessed as inhibition of cell viability incubated for 5 days by Cell Titer Glo assay; format: functional, cell-based; settings: SNU1, 120 h
[13] = system: Panc 04.03; experiment: Antiproliferative activity against human Panc 04.03 cells harboring KRAS G12D mutant assessed as inhibition of cell viability incubated for 5 days by Cell Titer Glo assay; format: functional, cell-based; settings: Panc 04.03, 120 h
[14] = species on record: Homo sapiens; experiment: Binding affinity to His-tagged VHL/Elongin C/Elongin B/GST-tagged KRAS G12D mutant (unknown origin) incubated for 1 hr by HTRF assay
[15] = system: AGS; experiment: Antiproliferative activity against human AGS cells harboring KRAS G12D mutant assessed as inhibition of cell viability incubated for 5 days by Cell Titer Glo assay; format: functional, cell-based; settings: 120 h
[16] = system: ASPC1; experiment: Antiproliferative activity against human ASPC1 cells assessed as inhibition of cell viability incubated for 6 hrs followed by compound washout measured after 114 hrs by Cell Titer Glo assay; format: functional, cell-based
[17] = system: von Hippel-Lindau disease tumor suppressor/GTPase KRas (Homo sapiens), P01116+P40337 [G12D]; experiment: PROTAC activity at VHL/KRAS G12D mutant in human ASPC1 cells assessed as decrease in pERK level at 1 uM incubated for 6 hrs followed by compound washout measured for <4 hrs by Western blot analysis; format: cell-based
[18] = system: ASPC1; experiment: Antiproliferative activity against human ASPC1 cells assessed as inhibition of cell viability incubated for 120 hrs of continuous treatment by Cell Titer Glo assay; format: functional, cell-based; settings: ASPC1, 120 h
[19] = Selectivity index, ratio of IC50 for human ASPC1 cells assessed as inhibition of cell viability incubated for 6 hrs followed by compound washout measured after 114 hrs by Cell Titer Glo assay to IC50 for human ASPC1 cells assessed as inhibition of cell viability incubated for 120 hrs of continuous treatment by Cell Titer Glo assay; format: functional
[20] = molecular target: GTPase KRas (Homo sapiens, UniProt P01116, G12D); experiment: Inhibition of KRAS G12D mutant (unknown origin) preincubated for 15 mins followed by SOS1/EDA-GTP-DY-647P1 addition measured after 30 mins by HTRF assay
Chain of GTPase KRas (P01116 whole entry G12D): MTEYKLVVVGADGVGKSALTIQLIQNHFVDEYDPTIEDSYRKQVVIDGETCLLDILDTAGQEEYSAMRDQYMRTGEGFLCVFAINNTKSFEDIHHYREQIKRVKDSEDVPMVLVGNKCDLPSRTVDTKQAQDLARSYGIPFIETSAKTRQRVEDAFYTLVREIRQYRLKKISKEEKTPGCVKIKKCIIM

Chain of von Hippel-Lindau disease tumor suppressor/GTPase KRas (Homo sapiens), P01116+P40337 [G12D] (P01116 whole entry G12D): as above
Chain of von Hippel-Lindau disease tumor suppressor/GTPase KRas (Homo sapiens), P01116+P40337 [G12D] (P40337 whole entry partner): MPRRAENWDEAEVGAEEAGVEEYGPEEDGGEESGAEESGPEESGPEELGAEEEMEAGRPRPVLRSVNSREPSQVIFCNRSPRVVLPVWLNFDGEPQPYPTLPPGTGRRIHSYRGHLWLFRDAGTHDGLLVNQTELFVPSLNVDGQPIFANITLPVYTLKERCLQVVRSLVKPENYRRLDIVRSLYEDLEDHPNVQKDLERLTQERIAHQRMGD
Chain of von Hippel-Lindau disease tumor suppressor/GTPase KRas (P01116 whole entry G12D, stated change not applied): as the sequence (P01116 whole entry G12D) above
Chain of von Hippel-Lindau disease tumor suppressor/GTPase KRas (P40337 whole entry, stated change not applied): as the sequence (P40337 whole entry partner) above

Structure (SMILES): CCc1cccc2cc(O)cc(-c3ncc4c(N5C[C@H]6CC[C@@H](C5)N6)nc(OC[C@@H]5CCCN5C5CCC6(CC5)CCN(CC(=O)N[C@H](C(=O)N5C[C@H](O)C[C@H]5C(=O)N[C@@H](C)c5ccc(-c7scnc7C)cc5)C(C)(C)C)CC6)nc4c3F)c12
- Emax [1]: 53.9%

Structure (SMILES): CCc1cccc2cc(O)cc(-c3ncc4c(N5C[C@H]6CC[C@@H](C5)N6)nc(OC[C@@H]5CCCN5C5CC6(CCN(CC(=O)N[C@H](C(=O)N7C[C@H](O)C[C@H]7C(=O)N[C@@H](C)c7ccc(-c8scnc8C)cc7)C(C)(C)C)CC6)C5)nc4c3F)c12
- DC50 ([2]; read-out: DC50): 0.134 µM
- Emax [1]: 85.1%

Structure (SMILES): CCc1cccc2cc(O)cc(-c3ncc4c(N5C[C@H]6CC[C@@H](C5)N6)nc(OC[C@@H]5CCCN5CCCCCCCCC(=O)N[C@H](C(=O)N5C[C@H](O)C[C@H]5C(=O)N[C@@H](C)c5ccc(-c6scnc6C)cc5)C(C)(C)C)nc4c3F)c12
- DC50 ([2]; read-out: DC50): 0.165 µM
- Emax [1]: 89.3%

Structure (SMILES): CCc1c(F)ccc2cc(O)cc(-c3ncc4c(N5C[C@H]6CC[C@@H](C5)N6)nc(OC[C@@H]5C[C@@H](F)CN5CCCCOCC(=O)N[C@H](C(=O)N5C[C@H](O)C[C@H]5C(=O)N[C@@H](C)c5ccc(-c6scnc6C)cc5)C(C)(C)C)nc4c3F)c12
- DC50 ([2]; read-out: DC50): 0.0872 µM
- Emax [1]: 96.2%

Structure (SMILES): CCc1cccc2cc(O)cc(-c3ncc4c(N5C[C@H]6CC[C@@H](C5)N6)nc(OC[C@@H]5CCCN5CCCCOCCC(=O)N[C@H](C(=O)N5C[C@H](O)C[C@H]5C(=O)N[C@@H](C)c5ccc(-c6scnc6C)cc5)C(C)(C)C)nc4c3F)c12
- DC50 ([2]; read-out: DC50): 1.31 µM
- Emax [1]: 90.2%

Structure (SMILES): CCc1cccc2cc(O)cc(-c3ncc4c(N5C[C@H]6CC[C@@H](C5)N6)nc(OC[C@@H]5CCCN5CCCCCC(=O)N[C@H](C(=O)N5C[C@H](O)C[C@H]5C(=O)N[C@@H](C)c5ccc(-c6scnc6C)cc5)C(C)(C)C)nc4c3F)c12
- DC50 ([2]; read-out: DC50): 1.2 µM
- Emax [1]: 89.7%

Structure (SMILES): CCc1cccc2cc(O)cc(-c3ncc4c(N5C[C@H]6CC[C@@H](C5)N6)nc(OC[C@@H]5CCCN5CCCCC(=O)N[C@H](C(=O)N5C[C@H](O)C[C@H]5C(=O)N[C@@H](C)c5ccc(-c6scnc6C)cc5)C(C)(C)C)nc4c3F)c12
- DC50 ([2]; read-out: DC50): 1.01 µM
- Emax [1]: 96.7%

Structure (SMILES): CC(=O)N[C@H](C(=O)N1C[C@H](O)C[C@H]1C(=O)N[C@@H](C)c1ccc(-c2scnc2C)cc1)C(C)(C)C
- Ratio IC50 [3]: 0.9
- IC50 [4]: 0.38 µM
- IC50 [5]: 0.343 µM

Structure (SMILES): CCc1cccc2cc(O)cc(-c3ncc4c(N5C[C@H]6CC[C@@H](C5)N6)nc(OC[C@@H]5CCCN5CCC(=O)NCCC(=O)N[C@H](C(=O)N5C[C@H](O)C[C@H]5C(=O)N[C@@H](C)c5ccc(-c6scnc6C)cc5)C(C)(C)C)nc4c3F)c12
- DC50 ([2]; read-out: DC50): 3.81 µM
- Ratio IC50 [3]: 76.2
- IC50 [4]: 0.0298 µM
- IC50 [5]: 2.27 µM
- Emax [1]: 83.6%
- Drug uptake [6]: Active

Structure (SMILES): CCc1cccc2cc(O)cc(-c3ncc4c(N5C[C@H]6CC[C@@H](C5)N6)nc(OC[C@@H]5CCCN5CCCOCCC(=O)N[C@H](C(=O)N5C[C@H](O)C[C@H]5C(=O)N[C@@H](C)c5ccc(-c6scnc6C)cc5)C(C)(C)C)nc4c3F)c12
- DC50 ([2]; read-out: DC50): 0.132 µM
- Ratio IC50 [3]: 35.7
- IC50 [4]: 0.0254 µM
- IC50 [5]: 0.908 µM
- Emax [1]: 98.1%

Structure (SMILES): CCc1c(F)ccc2cc(O)cc(-c3ncc4c(N5C[C@H]6CC[C@@H](C5)N6)nc(OC[C@@H]5CCCN5CCCCOCC(=O)N[C@H](C(=O)N5C[C@@H](O)C[C@H]5C(=O)N[C@@H](C)c5ccc(-c6scnc6C)cc5)C(C)(C)C)nc4c3F)c12
- Activity [7]: inactive
- IC50 [8]: > 10 µM
- IC50 [9]: > 2 µM
- IC50 [10]: > 4 µM
- IC50 [11]: > 10 µM
- IC50 [12]: 0.927 µM
- IC50 [13]: 3.37 µM
- Activity [14]: inactive
- IC50 [15]: 0.955 µM

Structure (SMILES): CCc1c(F)ccc2cc(O)cc(-c3ncc4c(N5C[C@H]6CC[C@@H](C5)N6)nc(OC[C@@H]5CCCN5C)nc4c3F)c12
- IC50 [16]: 2.94 µM
- IC50 [8]: > 10 µM
- IC50 [9]: 0.154 µM
- IC50 [10]: 0.165 µM
- Activity [17]: Active
- IC50 [11]: > 10 µM
- IC50 [18]: 0.139 µM
- IC50 [12]: 0.0298 µM
- IC50 [13]: 0.112 µM
- Ratio IC50 [19]: 21.14
- IC50 [15]: 0.0201 µM

Structure (SMILES): CCc1cccc2cc(O)cc(-c3ncc4c(N5C[C@H]6CC[C@@H](C5)N6)nc(OC[C@@H]5CCCN5CCCCCCCC(=O)N[C@H](C(=O)N5C[C@H](O)C[C@H]5C(=O)N[C@@H](C)c5ccc(-c6scnc6C)cc5)C(C)(C)C)nc4c3F)c12
- DC50 ([2]; read-out: DC50): 2.26 µM
- Emax [1]: 82.4%

Structure (SMILES): CCc1cccc2cc(O)cc(-c3ncc4c(N5C[C@H]6CC[C@@H](C5)N6)nc(OC[C@@H]5CCCN5C)nc4c3F)c12
- IC50 [20]: 0.0058 µM

Structure (SMILES): CCc1cccc2cc(O)cc(-c3ncc4c(N5C[C@H]6CC[C@@H](C5)N6)nc(OC[C@@H]5CCCN5CC5CCN(CCC(=O)N[C@H](C(=O)N6C[C@H](O)C[C@H]6C(=O)N[C@@H](C)c6ccc(-c7scnc7C)cc6)C(C)(C)C)CC5)nc4c3F)c12
- Ratio IC50 [3]: 26.9
- IC50 [4]: 0.0804 µM
- IC50 [5]: 2.16 µM
- Emax [1]: 29.8%

Structure (SMILES): CCc1cccc2cc(O)cc(-c3ncc4c(N5C[C@H]6CC[C@@H](C5)N6)nc(OC[C@@H]5CCCN5CCCCOCC(=O)N[C@H](C(=O)N5C[C@H](O)C[C@H]5C(=O)N[C@@H](C)c5ccc(-c6scnc6C)cc5)C(C)(C)C)nc4c3F)c12
- DC50 ([2]; read-out: DC50): 0.164 µM
- Ratio IC50 [3]: 21.5
- IC50 [4]: 0.0189 µM
- IC50 [5]: 0.407 µM
- Emax [1]: 99.4%
- Drug uptake [6]: Active

Structure (SMILES): C#Cc1c(F)ccc2cc(O)cc(-c3ncc4c(N5C[C@H]6CC[C@@H](C5)N6)nc(OC[C@@H]5CCCN5CCCCOCC(=O)N[C@H](C(=O)N5C[C@H](O)C[C@H]5C(=O)N[C@@H](C)c5ccc(-c6scnc6C)cc5)C(C)(C)C)nc4c3F)c12
- DC50 ([2]; read-out: DC50): 0.116 µM
- Emax [1]: 99.5%

Structure (SMILES): CCc1cccc2cc(O)cc(-c3ncc4c(N5C[C@H]6CC[C@@H](C5)N6)nc(OC[C@@H]5CCCN5CCCCCCC(=O)N[C@H](C(=O)N5C[C@H](O)C[C@H]5C(=O)N[C@@H](C)c5ccc(-c6scnc6C)cc5)C(C)(C)C)nc4c3F)c12
- DC50 ([2]; read-out: DC50): 0.572 µM
- Emax [1]: 98.9%

Structure (SMILES): CCc1cccc2cc(O)cc(-c3ncc4c(N5C[C@H]6CC[C@@H](C5)N6)nc(OC[C@@H]5CCCN5CCOCCC(=O)N[C@H](C(=O)N5C[C@H](O)C[C@H]5C(=O)N[C@@H](C)c5ccc(-c6scnc6C)cc5)C(C)(C)C)nc4c3F)c12
- DC50 ([2]; read-out: DC50): 1.82 µM
- Emax [1]: 89.5%

Structure (SMILES): CCc1cccc2cc(O)cc(-c3ncc4c(N5C[C@H]6CC[C@@H](C5)N6)nc(OC[C@@H]5CCCN5C[C@H]5CC[C@H](C(=O)N[C@H](C(=O)N6C[C@H](O)C[C@H]6C(=O)N[C@@H](C)c6ccc(-c7scnc7C)cc6)C(C)(C)C)CC5)nc4c3F)c12
- DC50 [2]: Not Active
- Emax [1]: inactive

Source: ChEMBL document CHEMBL5537171, “Design, Synthesis, and Biological Evaluation of Potent and Selective PROTAC Degraders of Oncogenic KRASG12D” (J Med Chem, 2024)
